Measured values as given in US20150328193A1, “TREATMENT OF MTOR HYPERACTIVE RELATED DISEASES AND DISORDERS” (THE BRIGHAM AND WOMEN'S HOSPITAL, INC., priority 2012, published 2015).
Counter-ions that a name gives are not always drawn.

Key:
[1] = system: 621-101 cells (TSC2-null, derived from a LAM patient); assay: High-throughput screen of known bioactives in 621-101 cells, ATP levels ([…] GLO) as cell viability, with or without rapamycin pretreatment; type: cell-based, human; settings: for Synergy with rapamycin to bring about apoptosis in TSC2-null LAM cells: combination with rapamycin; for Normalized ATP levels drug alone (A) / Normalized ATP levels rapa + drug (B): 621-101 cells, 48-72 h; for Normalized ATP levels drug alone (A): DMSO pretreatment; for Normalized ATP levels rapa + drug (B): rapamycin (20 nM) pretreatment two hours plus drug; for ATP Fold Change (B):(A): ratio of rapa + drug to drug alone; for Inducing cell death in TSC2-null LAM cells as single agent: used individually in the absence of rapamycin
Method: Rapamycin was used at 20 nM and the screen compounds at 20 uM.
Cells are then pretreated with either Rapamycin (20 nM) or DMSO control in duplicate for two hours. Compound libraries are then added at the ICCB and allowed to incubate for 48-72 h. […] Treatment with staurosporine (1-2 uM) represents a positive control for cell death.
The inventors screened the Known Bioactives Collection at the ICCB which consists of approximately 7,000 compounds.

[2] = system: 621-101 cells; assay: Follow-up imaging of cell death/proliferation in 621-101 cells; type: cell-based, human
Method: 621-101 cells were pretreated for two hours with either DMSO (top two panels) or rapamycin (20 nM) bottom two panels) followed by the addition of fresh DMSO (top left), fresh rapamycin (bottom left), chelerythrine chloride (1 uM, top right), or rapamycin and chelerythrine chloride (bottom right). […] 4× magnification.

[3] = molecular target: JAK2 kinase (Homo sapiens, UniProt O60674); settings: in vitro; cited from earlier work
[4] = molecular target: TrkA (Homo sapiens, UniProt P04629); settings: cited from earlier work
[5] = molecular target: T1, Aurora-A (Homo sapiens, UniProt O14965); settings: cited from earlier work
T1 sequence (O14965 1-403): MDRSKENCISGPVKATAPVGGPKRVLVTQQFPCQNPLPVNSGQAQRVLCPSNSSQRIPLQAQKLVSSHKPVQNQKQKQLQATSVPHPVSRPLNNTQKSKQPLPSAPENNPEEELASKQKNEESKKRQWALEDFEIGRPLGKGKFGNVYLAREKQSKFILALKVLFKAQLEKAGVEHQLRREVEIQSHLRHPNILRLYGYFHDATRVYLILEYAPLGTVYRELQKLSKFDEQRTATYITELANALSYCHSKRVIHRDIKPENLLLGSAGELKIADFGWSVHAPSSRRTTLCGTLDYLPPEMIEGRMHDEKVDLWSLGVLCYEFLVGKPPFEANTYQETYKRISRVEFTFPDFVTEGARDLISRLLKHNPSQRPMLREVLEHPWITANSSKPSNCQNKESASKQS

[6] = molecular target: FAK (Homo sapiens, UniProt Q05397); settings: cited from earlier work
[7] = system: ELT3-V3 (TSC2-deficient) cells; assay: Paroxetine treatment of ELT3-V3 (TSC2-deficient) versus ELT3-T3 (re-expressing TSC2) cells; type: cell-based, Eker rat; set-up: dose or concentration left out as unconfirmed; settings: 24 hrs
Method: […] TSC2-deficient uterine leiomyoma cells derived from the Eker rat model of TSC, ELT3-V3 (TSC2-deficient) and ELT3-T3 (re-expressing TSC2) were treated with […] of DMSO or Paxil for 24 hrs.

[8] = system: Tsc2-null mouse embryonic fibroblasts (MEFs); assay: Chelerythrine chloride treatment of Tsc2-null mouse embryonic fibroblasts; type: cell-based; settings: 10 uM, 30 hours
[9] = system: wild-type mouse embryonic fibroblasts (MEFs); assay: Chelerythrine chloride treatment of wild-type mouse embryonic fibroblasts; type: cell-based; settings: 10 uM, 30 hours
[10] = molecular target: protein kinase C (PKC); settings: cited from earlier work
[11] = Rapamycin 20 nM, screen compounds 20 uM

Sequence of JAK2 kinase (O60674 whole entry): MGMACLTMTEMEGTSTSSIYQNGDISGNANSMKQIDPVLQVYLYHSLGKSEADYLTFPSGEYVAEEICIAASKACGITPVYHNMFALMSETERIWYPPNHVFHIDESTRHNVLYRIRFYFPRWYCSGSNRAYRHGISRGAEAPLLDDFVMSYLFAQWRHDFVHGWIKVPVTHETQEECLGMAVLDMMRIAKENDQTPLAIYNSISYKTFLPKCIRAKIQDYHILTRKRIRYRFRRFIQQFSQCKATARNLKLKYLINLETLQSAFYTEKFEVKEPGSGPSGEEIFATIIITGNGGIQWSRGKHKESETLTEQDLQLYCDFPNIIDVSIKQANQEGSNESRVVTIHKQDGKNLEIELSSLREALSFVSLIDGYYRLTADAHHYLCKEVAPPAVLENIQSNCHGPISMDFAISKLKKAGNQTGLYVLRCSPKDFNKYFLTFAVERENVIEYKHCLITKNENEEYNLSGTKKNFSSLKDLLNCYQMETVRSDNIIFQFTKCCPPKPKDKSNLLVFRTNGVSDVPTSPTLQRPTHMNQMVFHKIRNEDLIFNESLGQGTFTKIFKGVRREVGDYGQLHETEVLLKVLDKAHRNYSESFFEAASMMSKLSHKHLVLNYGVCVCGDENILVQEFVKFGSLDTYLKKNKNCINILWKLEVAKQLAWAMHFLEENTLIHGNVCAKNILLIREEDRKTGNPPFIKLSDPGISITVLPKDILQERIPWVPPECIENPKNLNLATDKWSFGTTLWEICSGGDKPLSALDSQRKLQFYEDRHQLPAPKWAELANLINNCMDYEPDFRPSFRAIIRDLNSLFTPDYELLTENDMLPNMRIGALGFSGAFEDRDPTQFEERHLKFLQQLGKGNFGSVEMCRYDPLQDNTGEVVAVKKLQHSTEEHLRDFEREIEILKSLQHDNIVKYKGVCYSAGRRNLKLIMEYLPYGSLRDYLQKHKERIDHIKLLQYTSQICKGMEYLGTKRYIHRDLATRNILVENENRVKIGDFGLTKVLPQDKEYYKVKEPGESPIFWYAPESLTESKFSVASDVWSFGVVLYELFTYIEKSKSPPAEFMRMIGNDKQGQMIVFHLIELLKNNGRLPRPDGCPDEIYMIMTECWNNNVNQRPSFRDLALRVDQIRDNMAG
Sequence of FAK (Q05397 whole entry, species assumed): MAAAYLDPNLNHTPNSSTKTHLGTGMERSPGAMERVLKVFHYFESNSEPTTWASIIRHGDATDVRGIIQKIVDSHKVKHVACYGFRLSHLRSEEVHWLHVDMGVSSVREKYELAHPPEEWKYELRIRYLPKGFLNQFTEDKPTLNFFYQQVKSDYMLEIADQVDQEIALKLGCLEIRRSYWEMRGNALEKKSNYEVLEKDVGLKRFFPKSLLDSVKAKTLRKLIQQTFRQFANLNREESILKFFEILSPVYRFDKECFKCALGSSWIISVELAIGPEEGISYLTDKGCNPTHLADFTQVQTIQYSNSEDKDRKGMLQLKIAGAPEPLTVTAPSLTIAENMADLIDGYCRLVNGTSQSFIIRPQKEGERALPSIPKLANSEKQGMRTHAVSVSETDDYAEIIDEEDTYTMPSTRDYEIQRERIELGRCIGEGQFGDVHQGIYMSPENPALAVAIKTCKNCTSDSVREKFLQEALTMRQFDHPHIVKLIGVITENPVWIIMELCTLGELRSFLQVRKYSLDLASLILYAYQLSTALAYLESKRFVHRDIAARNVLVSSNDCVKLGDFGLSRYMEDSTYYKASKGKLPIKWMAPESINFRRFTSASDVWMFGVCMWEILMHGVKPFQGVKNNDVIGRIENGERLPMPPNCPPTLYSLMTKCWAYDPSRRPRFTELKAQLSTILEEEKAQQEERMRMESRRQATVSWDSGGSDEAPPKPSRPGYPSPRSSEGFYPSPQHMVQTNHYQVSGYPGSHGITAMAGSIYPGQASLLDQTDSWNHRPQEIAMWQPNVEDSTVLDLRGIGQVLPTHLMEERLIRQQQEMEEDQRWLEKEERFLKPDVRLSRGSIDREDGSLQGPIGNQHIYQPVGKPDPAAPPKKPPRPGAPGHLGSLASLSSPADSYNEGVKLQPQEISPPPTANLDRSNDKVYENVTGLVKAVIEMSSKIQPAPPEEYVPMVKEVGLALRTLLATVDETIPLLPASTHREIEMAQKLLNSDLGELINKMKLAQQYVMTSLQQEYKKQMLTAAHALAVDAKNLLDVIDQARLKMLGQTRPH
Sequence of TrkA (P04629 33-796, species assumed): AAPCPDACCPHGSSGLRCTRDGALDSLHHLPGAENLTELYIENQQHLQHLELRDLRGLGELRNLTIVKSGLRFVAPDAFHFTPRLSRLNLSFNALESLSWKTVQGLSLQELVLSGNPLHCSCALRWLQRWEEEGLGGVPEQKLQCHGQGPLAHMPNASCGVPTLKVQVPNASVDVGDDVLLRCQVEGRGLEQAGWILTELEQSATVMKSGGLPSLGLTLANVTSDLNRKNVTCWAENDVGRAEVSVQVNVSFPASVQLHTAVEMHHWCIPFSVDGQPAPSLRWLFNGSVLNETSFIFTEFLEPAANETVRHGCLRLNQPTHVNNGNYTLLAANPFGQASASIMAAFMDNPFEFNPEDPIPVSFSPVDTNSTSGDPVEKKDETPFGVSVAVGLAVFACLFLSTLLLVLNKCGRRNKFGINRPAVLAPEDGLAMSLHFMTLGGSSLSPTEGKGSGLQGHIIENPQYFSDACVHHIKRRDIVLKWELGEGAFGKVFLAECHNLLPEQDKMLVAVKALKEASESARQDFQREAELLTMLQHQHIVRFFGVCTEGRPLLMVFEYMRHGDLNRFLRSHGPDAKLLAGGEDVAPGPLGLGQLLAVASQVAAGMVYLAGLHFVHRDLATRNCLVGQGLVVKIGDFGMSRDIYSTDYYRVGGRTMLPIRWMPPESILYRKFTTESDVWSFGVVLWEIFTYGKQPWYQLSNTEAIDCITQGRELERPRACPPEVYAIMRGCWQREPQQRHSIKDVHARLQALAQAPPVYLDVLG

## CO[C@@H](C(=O)N1Cc2[nH]nc(NC(=O)c3ccc(N4CCN(C)CC4)cc3)c2C1)c1ccccc1 [danusertib (PHA-739358)]
[1]; [11]
  Synergize with rapamycin to cause cell death / decrease ATP levels (confirmed hits): confirmed as hits
[1]
  Synergy with rapamycin to bring about apoptosis in TSC2-null LAM cells: worked synergistically with rapamycin

## CCC1(c2ccc(N)cc2)CCC(=O)NC1=O (centres unmarked) [Aminoglutethimide]
[1]
  Normalized ATP levels drug alone (A): 0.474
  Normalized ATP levels rapa + drug (B): 1.264
  ATP Fold Change (B):(A): 2.7 (Anticonvulsant)
  Inducing cell death in TSC2-null LAM cells as single agent: surprisingly effective at inducing cell death

## COC(=O)C1=C(C)NC(C)=C(C(=O)OCCN(C)Cc2ccccc2)C1c1cccc([N+](=O)[O-])c1 (centres unmarked) [nicardipine]
[1]
  Synergy with rapamycin to bring about apoptosis in TSC2-null LAM cells: worked synergistically with rapamycin

## CNCCC=C1c2ccccc2CCc2ccccc21 [nortriptyline, 3-(10,11-dihydro-5H-dibenzo[a,d]cyclohepten-5-ylidene)-N-methyl-1-propanamine]
[1]
  Inducing cell death in TSC2-null LAM cells as single agent: surprisingly effective at inducing cell death

## COc1ccc2c(c1)CC[C@@H]1[C@@H]2CC[C@]2(C)[C@@H](NCCCCCCN3C(=O)CCC3=O)CC[C@@H]12 [U-73343, 1-[6-[((17β)-3-Methoxyestra-1,3,5[10]-trien-17-yl)amino]hexyl]-2,5-pyrrolidinedione]
[1]
  Synergy with rapamycin to bring about apoptosis in TSC2-null LAM cells: worked synergistically with rapamycin

## CNCCC(Oc1ccc(C(F)(F)F)cc1)c1ccccc1 (racemic) [fluoxetine, (RS)-N-methyl-3-phenyl-3-[4-(trifluoromethyl)phenoxy]propan-1-amine]
[1]
  Inducing cell death in TSC2-null LAM cells as single agent: surprisingly effective at inducing cell death

## O=C(Nc1cccc(Nc2ncc(Br)c(NCCc3cnc[nH]3)n2)c1)N1CCCC1 [BX912, N-(3-(4-(2-(1H-imidazol-5-yl)ethylamino)-5-bromopyrimidin-2-ylamino)phenyl)pyrrolidine-1-carboxamide]
[1]
  Synergy with rapamycin to bring about apoptosis in TSC2-null LAM cells: worked synergistically with rapamycin

## CC(C)NCC(O)COc1ccc(CCOCC2CC2)cc1 (centres unmarked) [Betaxolol HCl]
[1]
  Normalized ATP levels drug alone (A): 0.487
  Normalized ATP levels rapa + drug (B): 1.27
  ATP Fold Change (B):(A): 2.6 (β blocker)
  Inducing cell death in TSC2-null LAM cells as single agent: surprisingly effective at inducing cell death

## CO[C@H]1C[C@@H]2CC[C@@H](C)[C@@](O)(O2)C(=O)C(=O)N2CCCC[C@H]2C(=O)O[C@H]([C@H](C)C[C@@H]2CC[C@@H](O)[C@H](OC)C2)CC(=O)[C@H](C)/C=C(\C)[C@@H](O)[C@@H](OC)C(=O)[C@H](C)C[C@H](C)/C=C/C=C/C=C/1C [rapamycin]
[2]; FIG. 1
  Cell death in 621-101 cells: does not induce cell death

## (7R)-7-(Acetyloxy)-4-hydroxy-N,N,N-trimethyl-3,5,9-trioxa-4-phosphapentacosan-1-aminium-4-oxide [PAF C16]
[1]
  Synergy with rapamycin to bring about apoptosis in TSC2-null LAM cells: worked synergistically with rapamycin

## OCc1cc(C(O)CNCCCCCCOCCCCc2ccccc2)ccc1O (centres unmarked) [Salmeterol]
[1]
  Normalized ATP levels drug alone (A): 0.184
  Normalized ATP levels rapa + drug (B): 0.456
  ATP Fold Change (B):(A): 2.5 (β blocker)
  Inducing cell death in TSC2-null LAM cells as single agent: surprisingly effective at inducing cell death

## OCCN1CCN(CC/C=C2/c3ccccc3Sc3ccc(C(F)(F)F)cc32)CC1 [Flupenthixol 2HCl]
[1]
  Normalized ATP levels drug alone (A): 0.273
  Normalized ATP levels rapa + drug (B): 0.776
  ATP Fold Change (B):(A): 2.8 (Anti-psychotic)
  Inducing cell death in TSC2-null LAM cells as single agent: surprisingly effective at inducing cell death

## Cc1cc(Nc2nc(N[C@@H](C)c3ccc(F)cc3)c(C#N)cc2F)n[nH]1 [AZ-960]
[1]; [11]
  Synergize with rapamycin to cause cell death / decrease ATP levels (confirmed hits): confirmed as hits
[1]
  Synergy with rapamycin to bring about apoptosis in TSC2-null LAM cells: worked synergistically with rapamycin
[3]
  Ki: 0.00045 µM
[4]
  IC50: ~0.1 µM
[5]
  IC50: ~0.1 µM
[6]
  IC50: ~0.1 µM

## Fc1ccc([C@@H]2CCNC[C@H]2COc2ccc3c(c2)OCO3)cc1 [paroxetine, (3S,4R)-3-[(2H-1,3-benzodioxol-5-yloxy)methyl]-4-(4-fluorophenyl)piperidine]
[1]
  Inducing cell death in TSC2-null LAM cells as single agent: surprisingly effective at inducing cell death
[7]
  Apoptosis of ELT3-V3 (TSC2-deficient) cells: susceptible to Paxil induced apoptosis
  Selectivity for TSC2-deficient ELT3-V3 versus ELT3-T3 cells: selective to Tsc2-null cells

## C[C@H](CCC(=O)O)C[C@H](C)C[C@H](C)C(=O)/C=C(\O)[C@H](C)C[C@H](C)C/C=C/[C@@H](C)[C@@H](O)[C@@H](C)[C@@H](O)C[C@@H]1CC[C@@](C)([C@H]2CC[C@@](C)([C@@H](C)O)O2)O1 [ionomycin]
[1]
  Synergy with rapamycin to bring about apoptosis in TSC2-null LAM cells: worked synergistically with rapamycin

## CN(C)CCOc1ccc(-c2nc(-c3ccncc3)c(-c3ccc4c(c3)CC/C4=N\O)[nH]2)cc1 [SB-590885]
[1]; [11]
  Synergize with rapamycin to cause cell death / decrease ATP levels (confirmed hits): confirmed as hits
[1]
  Synergy with rapamycin to bring about apoptosis in TSC2-null LAM cells: worked synergistically with rapamycin

## COc1ccc2c(c[n+](C)c3c4cc5c(cc4ccc23)OCO5)c1OC [chelerythrine chloride]
[1]; [11]
  Effect alone versus in combination with rapamycin (single agent potential): protected by rapamycin
[1]
  Inducing cell death in TSC2-null LAM cells as single agent: surprisingly effective at inducing cell death
[2]; 24 h, 1 uM, rapamycin 20 nM pretreatment two hours
  Effect on 621-101 cells in combination with rapamycin: effect on cells is reduced
[2]; 24 h post drug exposure, 1 uM, DMSO pretreatment
  621-101 cell proliferation: inhibits 621-101 cell proliferation
[2]; 96 h post drug exposure
  621-101 cell proliferation: inhibits 621-101 cell proliferation
[8]
  Effect on Tsc2-null MEFs: dramatic effect
  Selectivity for Tsc2-null versus wild-type MEFs: selective to Tsc2-null cells
[9]
  Effect on wild-type MEFs: minimal effect
[10]
  IC50: 0.66 µM

## NC[C@@H]1O[C@H](C23CC4CC(CC(C4)C2)C3)Cc2c1ccc(O)c2O [A-77636]
[1]
  Inducing cell death in TSC2-null LAM cells as single agent: surprisingly effective at inducing cell death

## CN1CCN(CCCN2c3ccccc3Sc3ccc(C(F)(F)F)cc32)CC1 [trifluoperazine, 10-[3-(4-methylpiperazin-l-yl)propyl]-2-(trifluoromethyl)-10H-phenothiazine]
[1]
  Inducing cell death in TSC2-null LAM cells as single agent: surprisingly effective at inducing cell death

## CCC1(c2ccccc2)NC(=O)N(C)C1=O (centres unmarked) [Mephenytoin]
[1]
  Normalized ATP levels drug alone (A): 0.425
  Normalized ATP levels rapa + drug (B): 1.17
  ATP Fold Change (B):(A): 2.8 (Anticonvulsant)
  Inducing cell death in TSC2-null LAM cells as single agent: surprisingly effective at inducing cell death

## C/N=c1\nc(-c2ccccc2)n(-c2ccccc2)s1 [SCH-202676 hydrobromide, (N-(2,3-diphenyl-1,2,4-thiadiazol-5-(2H)-ylidene)methanamine) hydrobromide]
[1]; [11]
  Synergize with rapamycin to cause cell death / decrease ATP levels (confirmed hits): confirmed as hits
[1]
  Synergy with rapamycin to bring about apoptosis in TSC2-null LAM cells: worked synergistically with rapamycin

## C[CH2][Hg][S]c1ccccc1C(=O)[O-].[Na+] [Thimerosal, Ethyl(2-mercaptobenzoato-(2-)-O,S) mercurate(1-) sodium]
[1]
  Synergy with rapamycin to bring about apoptosis in TSC2-null LAM cells: worked synergistically with rapamycin

## OCCN1CCN(CCCN2c3ccccc3Sc3ccc(C(F)(F)F)cc32)CC1 [Fluphenazine 2HCl]
[1]
  Normalized ATP levels drug alone (A): 0.069
  Normalized ATP levels rapa + drug (B): 0.191
  ATP Fold Change (B):(A): 2.8 (Anti-psychotic)
  Inducing cell death in TSC2-null LAM cells as single agent: surprisingly effective at inducing cell death
